Measurements published in patent US7612056B2, “Substituted diaza-spiro-[4.5]-decane derivatives and their use as neurokinin antagonists” (Jenssen Pharmaceutica N.V., priority 2005, dated 2009).

Legend:
[1] = target: NK1 (Homo sapiens, UniProt P25103); test: Signal transduction (ST), intracellular Ca++ (FLIPR), NK1; type: cell-based; conditions: antagonist, Ca++ transient peak, read-out: pIC50 NK1 (converted)
Experimental: This test evaluates in vitro functional NK1 antagonistic activity. For the measurements of intracellular Ca^++ concentrations the cells were grown on 96-well (black wall/transparent bottom) plates from Costar for 2 days until they reached confluence. The cells were loaded with 2 μM Fluo3 in DMEM containing 0.1% BSA and 2.5 mM probenecid for 1 h at 37° C. They were washed 3× with a Krebs buffer (140 mM NaCl, 1 mM MgCl2×6H2O, 5 mM KCl, 10 mM glucose, 5 mM HEPES; 1.25 mM CaCl2; pH 7.4) containing 2.5 mM probenecid and 0.1% BSA (Ca^++-buffer). The cells were preincubated with a concentration range of antagonists for 20 min at RT and Ca^++-signals after addition of the agonists were measured in a Fluorescence Image Plate Reader (FLIPR from Molecular Devices, Crawley, England). The peak of the Ca^++-transient was considered as the relevant signal and the mean values of corresponding wells were analysed as described below.
The sigmoidal dose response curves were analysed by computerised curve-fitting, using the GraphPad Program. The EC50-value of a compound is the effective dose showing 50% of maximal effect. For mean curves the response to the agonist with the highest potency was normalised to 100%. For antagonist responses the IC50-value was calculated using non-linear regression. […]

[2] = target: T1, NK3 (Homo sapiens, UniProt P29371); test: Signal transduction (ST), intracellular Ca++ (FLIPR), NK3; type: cell-based; conditions: antagonist, Ca++ transient peak, read-out: pIC50 NK3 (converted)
T1 sequence (P29371 1-465): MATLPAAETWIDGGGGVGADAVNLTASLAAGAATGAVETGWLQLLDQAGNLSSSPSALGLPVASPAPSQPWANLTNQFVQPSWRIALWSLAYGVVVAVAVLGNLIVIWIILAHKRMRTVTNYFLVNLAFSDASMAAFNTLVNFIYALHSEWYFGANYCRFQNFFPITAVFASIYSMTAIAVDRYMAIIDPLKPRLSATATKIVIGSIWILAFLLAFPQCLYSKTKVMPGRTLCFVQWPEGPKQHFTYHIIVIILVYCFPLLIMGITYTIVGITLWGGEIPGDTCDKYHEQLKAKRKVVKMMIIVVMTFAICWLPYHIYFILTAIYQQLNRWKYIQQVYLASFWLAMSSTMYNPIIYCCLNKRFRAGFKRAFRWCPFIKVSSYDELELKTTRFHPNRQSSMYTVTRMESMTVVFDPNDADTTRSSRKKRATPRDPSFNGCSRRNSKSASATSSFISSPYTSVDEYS

[3] = target: T2, NK2 (Homo sapiens, UniProt P21452); test: Signal transduction (ST), intracellular Ca++ (FLIPR), NK2; type: cell-based; conditions: antagonist, Ca++ transient peak, read-out: pIC50 NK2 (converted)
T2 sequence (P21452 1-398): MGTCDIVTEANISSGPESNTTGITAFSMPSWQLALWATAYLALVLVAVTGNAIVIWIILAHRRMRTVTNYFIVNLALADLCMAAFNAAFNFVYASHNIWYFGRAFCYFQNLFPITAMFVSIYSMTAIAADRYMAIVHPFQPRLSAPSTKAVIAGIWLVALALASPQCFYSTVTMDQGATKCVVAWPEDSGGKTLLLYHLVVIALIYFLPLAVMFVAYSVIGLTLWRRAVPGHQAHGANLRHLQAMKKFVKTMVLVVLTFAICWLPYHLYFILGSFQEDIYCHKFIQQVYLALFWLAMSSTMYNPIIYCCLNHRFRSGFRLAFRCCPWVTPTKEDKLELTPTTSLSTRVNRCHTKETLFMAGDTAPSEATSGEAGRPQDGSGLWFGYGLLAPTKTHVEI

Sequence of NK1 (P25103 whole entry): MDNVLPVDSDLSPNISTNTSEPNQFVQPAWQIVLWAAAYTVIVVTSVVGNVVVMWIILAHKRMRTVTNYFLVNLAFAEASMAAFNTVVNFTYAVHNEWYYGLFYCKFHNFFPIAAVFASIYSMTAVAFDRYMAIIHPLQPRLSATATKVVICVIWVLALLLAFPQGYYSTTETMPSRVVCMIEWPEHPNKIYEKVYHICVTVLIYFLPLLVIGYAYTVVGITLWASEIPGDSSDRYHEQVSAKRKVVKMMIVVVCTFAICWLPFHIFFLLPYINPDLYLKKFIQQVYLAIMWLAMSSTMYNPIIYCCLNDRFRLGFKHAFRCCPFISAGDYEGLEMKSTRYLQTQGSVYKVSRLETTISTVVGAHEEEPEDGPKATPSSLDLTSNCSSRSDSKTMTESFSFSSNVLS

IC50 [1] [µM]	IC50 [2] [µM]	melting point [°C]	IC50 [3] [µM]	SMILES
0.0537	> 10	160	–	O=C(C1CC1)N1CCC2(CC1)CCN(C1CCN(C(=O)c3cc(C(F)(F)F)cc(C(F)(F)F)c3)C(Cc3ccccc3)C1)C2 (stereo not drawn) [Compound 6]
0.178	3.31	–	7.59	O=C(c1ccoc1)N1CCC2(CCN(C3CCN(C(=O)c4cc(C(F)(F)F)cc(C(F)(F)F)c4)C(Cc4ccccc4)C3)CC2)C1 (stereo not drawn) [Compound 7]
0.117	0.977	–	> 10	O=C(c1ccoc1)N1CCC2(CCN([C@H]3CCN(C(=O)c4cc(C(F)(F)F)cc(C(F)(F)F)c4)[C@H](Cc4ccccc4)C3)CC2)C1 [Compound 8]
0.234	> 10	–	9.55	O=C(c1cc(C(F)(F)F)cc(C(F)(F)F)c1)N1CCC(N2CCC3(CC2)CCN(S(=O)(=O)c2cccs2)C3)CC1Cc1ccccc1 (stereo not drawn) [Compound 9]
0.282	6.92	–	> 10	O=C(C1CCOC1)N1CCC2(CCN([C@@H]3CCN(C(=O)c4cc(C(F)(F)F)cc(C(F)(F)F)c4)[C@H](Cc4ccccc4)C3)CC2)C1 (stereo partly drawn) [Compound 11]
0.0759	4.27	–	5.13	O=C(c1ccccc1Cl)N1CCC2(CCN([C@H]3CCN(C(=O)c4cc(C(F)(F)F)cc(C(F)(F)F)c4)[C@H](Cc4ccccc4)C3)CC2)C1 [Compound 13]
0.347	> 10	152	> 10	O=C1CC2(CCN([C@H]3CCN(C(=O)c4cc(C(F)(F)F)cc(C(F)(F)F)c4)[C@H](Cc4ccccc4)C3)CC2)CN1 [Compound 21]
0.0692	> 10	–	4.37	O=C1CC2(CCN([C@H]3CCN(C(=O)c4cc(C(F)(F)F)cc(C(F)(F)F)c4)[C@H](Cc4ccccc4)C3)CC2)CN1CC1CC1 [Compound 23]
0.126	5.25	–	2.04	O=C1CC2(CCN([C@@H]3CCN(C(=O)c4cc(C(F)(F)F)cc(C(F)(F)F)c4)[C@H](Cc4ccccc4)C3)CC2)CN1CC1CC1 [Compound 24]
0.0316	6.92	–	5.5	O=C1CC2(CCN(C3CCN(C(=O)c4cc(C(F)(F)F)cc(C(F)(F)F)c4)C(Cc4ccccc4)C3)CC2)CN1CC1CCCO1 (stereo not drawn) [Compound 25]
0.0537	> 10	–	3.98	O=C1CC2(CCN([C@H]3CCN(C(=O)c4cc(C(F)(F)F)cc(C(F)(F)F)c4)[C@H](Cc4ccccc4)C3)CC2)CN1Cc1ccoc1 [Compound 26]
0.117	8.13	–	1.91	O=C1CC2(CCN([C@@H]3CCN(C(=O)c4cc(C(F)(F)F)cc(C(F)(F)F)c4)[C@H](Cc4ccccc4)C3)CC2)CN1Cc1ccoc1 [Compound 27]
0.145	10.2	–	7.59	Cc1ccccc1CN1CC2(CCN([C@H]3CCN(C(=O)c4cc(C(F)(F)F)cc(C(F)(F)F)c4)[C@H](Cc4ccccc4)C3)CC2)CC1=O [Compound 28]
0.102	> 10	–	5.25	O=C1CC2(CCN([C@H]3CCN(C(=O)c4cc(C(F)(F)F)cc(C(F)(F)F)c4)[C@H](Cc4ccccc4)C3)CC2)CN1Cc1ccsc1 [Compound 29]
0.302	> 10	–	0.813	O=C1CC2(CCN([C@@H]3CCN(C(=O)c4cc(C(F)(F)F)cc(C(F)(F)F)c4)[C@H](Cc4ccccc4)C3)CC2)CN1Cc1ccsc1 [Compound 30]
0.0724	11	–	2.24	O=C1CC2(CCN([C@@H]3CCN(C(=O)c4cc(C(F)(F)F)cc(C(F)(F)F)c4)[C@H](Cc4ccccc4)C3)CC2)CN1Cc1ccccc1 [Compound 31]
0.269	8.32	–	10.5	Cc1ccccc1CN1CC2(CCN([C@@H]3CCN(C(=O)c4cc(C(F)(F)F)cc(C(F)(F)F)c4)[C@H](Cc4ccccc4)C3)CC2)CC1=O [Compound 32]
0.191	9.12	–	9.55	O=C1CC2(CCN([C@@H]3CCN(C(=O)c4cc(C(F)(F)F)cc(C(F)(F)F)c4)[C@H](Cc4ccccc4)C3)CC2)CN1Cc1ccccc1F [Compound 33]
0.0692	> 10	–	4.47	O=C1CC2(CCN([C@H]3CCN(C(=O)c4cc(C(F)(F)F)cc(C(F)(F)F)c4)[C@H](Cc4ccccc4)C3)CC2)CN1Cc1ccccc1Cl [Compound 34]
0.182	9.55	–	9.12	O=C1CC2(CCN([C@@H]3CCN(C(=O)c4cc(C(F)(F)F)cc(C(F)(F)F)c4)[C@H](Cc4ccccc4)C3)CC2)CN1Cc1ccccc1Cl [Compound 35]
0.135	> 10	–	> 10	CS(=O)(=O)N1CC2(CCN([C@H]3CCN(C(=O)c4cc(C(F)(F)F)cc(C(F)(F)F)c4)[C@H](Cc4ccccc4)C3)CC2)c2ccccc21 [Compound 39]
0.204	–	–	2.04	O=C(c1cc(C(F)(F)F)cc(C(F)(F)F)c1)N1CC[C@H](N2CCCC3(CCCN3C(=O)C3CC3)C2)C[C@H]1Cc1ccccc1 (stereo partly drawn) [Compound 46]
0.234	> 10	–	3.63	O=C(c1cc(C(F)(F)F)cc(C(F)(F)F)c1)N1CC[C@H](N2CCCC3(CCCN3C(=O)c3ccoc3)C2)C[C@H]1Cc1ccccc1 (stereo partly drawn) [Compound 48]

SMILES	IC50 [1] [µM]	IC50 [2] [µM]	melting point [°C]	IC50 [3] [µM]
O=C(C1CC1)N1CC2(CCN([C@H]3CCN(C(=O)c4cc(C(F)(F)F)cc(C(F)(F)F)c4)[C@H](Cc4ccccc4)C3)CC2)c2ccccc21 [Compound 37]	0.302	6.76	–	> 10
